From article PMC8309014, “Lactose-Gated Mesoporous Silica Particles for Intestinal Controlled Delivery of Essential Oil Components: An In Vitro and In Vivo Study” (Pharmaceutics, 2021)

Columns and labels:
[1] = tested on: MCP-1; experiment: Inflammatory response measurement: MCP-1 release in apical media; format: cell-based, Human; details: 24 h, EOC 200 μM free or in M41-EOC-L; LPS 10 μg/mL positive control
Procedure: The Caco-2 cell epithelia were incubated in cell culture medium with each treatment, free EOCs (200 μM) and […] solids (concentration of particles corresponding to a 200 μM EOC-payload), during the time required to perform the assay: 90 min for EOCs permeability (see Section 2.13) and 24 h for the other interaction studies (Lucifer yellow, Section 2.14, and inflammatory response measurement, Section 2.15). In addition, some cell inserts were incubated with free medium at the same conditions as negative controls. TEER measurements were performed before and after each treatment to ascertain the validity of the membranes before the assay and to know the treatment's effect on them. Inflammatory cytokine and chemokine release (IL-8, MCP-1) was measured in the apical media from the enterocyte layers after 24 h of treatment with the corresponding […]-EOC-L and free EOCs. For the measurement, a Bio-Plex 1 MAGPIX TM Multiplex Reader (Bio-Rad) was employed according to the manufacturer-described-procedure. The cells were stimulated with 10 μg/mL LPS as positive control.

[2] = in vivo; details: male, Wistar, rat, po
Procedure: The EOC concentration in the aliquots of each specific section ((i) cargo release experiments, Section 2.6; (ii) EOCs permeability across the intestinal barriers, Section 2.13; and (iii) in vivo pharmacokinetic assays, Section 2.17) was analyzed by HPLC. For Thy and Eug molecules, the mobile phase used was ACN:H2O 50:50 v/v with 0.05% of TFA and absorbance detector using λex = 280 nm. For Cin, the mobile phase was ACN:H2O 85:15 v/v with 0.05% of TFA and λex = 254 nm. […] of volume injection were used and a flow of 1 mL/min was fixed. The methods were previously validated with adequate linearity, precision and accuracy (R > 0.99 and coefficient of variation < 5%).
In vivo experiments with M41-Cin-L in a Wistar rat model were carried out in order to study the concentration of cinnamaldehyde, free and encapsulated, in plasma and in the different gastrointestinal sections. The animal study was approved by the Scientific Committee of the Faculty of Pharmacy Universidad Miguel Hernández, Elche (project reference DI-MBS-02-15) and followed the guidelines described in the EC Directive 86/609, the Council of the Europe Convention ETS 123 and Spanish national laws governing the use of animals in research (Real Decreto 223/1988, BOE 67, 18-3-98:8509-8511). […] The concentration of Cin in each sample was determined by HPLC following the methodology described in Section 2.7.

SMILES | MCP-1 levels in the apical compartment [1] | Tmax [2] [h] | half-life [2] [h]
C=CCc1ccc(O)c(OC)c1 [Eug, eugenol] | increases its levels | – | –
O=C/C=C/c1ccccc1 [Cin, cinnamaldehyde] | – | 0.75 | 1.36
